# Experiments:
# [1] = tested on: human patient with sinus tachycardia; test: Case report: heart rate (ECG) of a human patient with sinus tachycardia and systemic lupus erythematosus
# Excerpt: The heart rate of a mammal is defined as the number of heart beats per unit of time, usually heart beats per minute (bpm). The heart rate or number of heart beats per unit of time can be determined using methods known in the art. Such a method may involve the simple measurement of a mammal's pulse. Alternatively, heart rate may be measured through the use of an electrocardiograph (ECG), which is readily available to those skilled in the art. Such a method involves counting the number of QRS complexes in the ECG.
# The patient was a person with no previous history of cardiac related disease.
# Furthermore, the glyceryl trinitrate spray was used whenever angina symptoms were experienced.
# In June 2009, the patient was diagnosed with systemic lupus erythematosus.
# On Aug. […] On Aug. […] On Sep.
# [2] = tested on: isolated guinea-pig sino-atrial node cells; test: Action potential recordings, current clamp in single isolated sino-atrial node cells; type: cell-based; details: 1 μM
# Protocol: Male guinea pigs (350-500 g) were sacrificed by concussion followed by cervical dislocation. The heart was rapidly excised and encouraged to beat several times in heparin-containing zero-Ca ^2+ modified Tyrode solution to prevent clotting (10 U/mL). The heart was mounted via the aorta on a constant pressure Langendorff system for retrograde perfusion, with solutions maintained at body temperature. After 2 minutes initial wash with zero Ca ^2+ solution (in mM: NaCl 136, KCI 5.4, NaHCO3 12, Na^+ pyruvate 1, NaH2PO4 1, MgCl2 1, EGTA 0.04, glucose 5; gassed with 95% O2/5% CO2 to maintain a pH of 7.4), perfusion was switched to re-circulation with collagenase solution (same as zero Ca^2+ but with 27 mg collagenase/50 mL—type II Worthington, Worthington Biochemical Corp., Lakewood, N.J., USA—0.1 mM CaCl2 and no EGTA).
# Following 25 minutes enzymatic digestion, the right atrium, vena-cavae and pulmonary artery were dissected away from the ventricles. The right atrium was pinned in a Sylgard-coated bath, opened by anterior incision, and the SA node identified from anatomical features and tissue appearance. Under a binocular microscope, the SA node appears as a translucent, smooth, white structure in contrast to the thicker, pinker surrounding atrial tissue. The SA node was dissected into thin strips 2×5 mm) and stored in a high potassium medium (in mM: KCI 70, MgCl2 5, K^+ glutamine 5, taurine 20, EGTA 0.04, succinic acid 5, KH2PO4 20, HEPES 5, glucose 10; pH to 7.2 with KOH). Isolation of single SA node myocytes was carried out by gentle trituration.
# For all single cell experiments, cells were transferred to a glass coverslip and superfused with oxygenated PSS at 34 ±1° C. using a gravity-fed system running at 2-3 mL/min. HCQ was applied via superfusion, with an electronic switching mechanism resulting in full solution exchange over a period of less than 20 seconds.
# Perforated patch clamp recordings were carried out using electrodes pulled from filamented borosilicate glass capillary tubing (GC100 F, Harvard Apparatus Ltd, Kent) using a two-stage vertical puller (Narishige, Japan). […]
# Micropipettes were mounted in a Perspex holder containing an Ag/AgCl wire and connected to a CV203BU headstage. All recordings were carried out using an AxoPatch 200B microelectrode system, digitised with a Digidata 1200 A-D converter, and recorded using PCIamp7 software at a sampling rate of 2 kHz (All products in this paragraph, Axon Instruments). […]
# Action potentials were recorded from single guinea pig SA node cells under current clamp conditions using the AxoPatch200B microelectrode system and rate measured in Hz using spectral analysis. […]
# [3] = tested on: If current; test: If current recordings, perforated patch voltage clamp in single isolated sinoatrial node cells; type: cell-based, guinea pig; details: for reduction in If current: 1 μM, 5 min exposure, n=7
# [4] = tested on: C57BL/6 mice; design: species or system mouse; details: in vivo
# Excerpt: Automated non-invasive tail cuff plethysmography (Visitech 2000, Visitech, USA) was used to determine systolic blood pressure in response to HCQ in drinking water when compared to a control group (n=9/group). C57BL/6 mice were habituated for 5 days and then underwent measurements alternate day for 28 days. All measurements were taken in the morning at the same time of day. Twenty measurements were taken, the first 10 discarded and an average of valid recordings then taken for analysis.
# We assessed safety by performing long term feeding of mice at 100 mg/kg daily for 28 days with HCQ (FIG. 9) and measuring blood pressure by tail cuff plethysmography.
# [5] = tested on: mouse atrial tissue preparations with intact sino-atrial node; test: Spontaneous beating rate of isolated mouse atrial preparations (tension transducer); type: cell-based; details: for reduction in beating rate from control: n=7 (Example 5); for decrease in spontaneous frequency: 30 minute exposure, n=6 (Example 3)
# Excerpt: (§1) Male CD-1 mice (7-9 weeks of age) were terminated by concussion followed by dislocation. The chest cavity was opened and heparinised solution (10 U/mL) applied around the heart to minimise clotting during dissection. The heart was rapidly excised and placed in warm, oxygenated modified Tyrode solution (PSS, in mM: NaCl 125, NaHCO3 25, KCl 5.4, NaH2PO4 1.2, MgCl2 1, glucose 5.5, CaCl2 1.8, pH to 7.4 with NaOH and oxygenated with 95% O2/5% CO2), the ventricular tissue discarded and the sino-atrial node region cleared of any overlying tissue.
# Loops of thin suture were tied to the lateral edges of each atrium by directly knotting around a small area of the tissue, taking care to avoid contact with the node itself. One loop was anchored to a hook, which also provided oxygenation to the organ bath, and the other tied to a tension transducer. The preparation was hung in an organ bath filled with PSS, maintained at 37° C. Tension data was digitised using a PowerLabs bridge amplifier and recorded on Chart5 software (all from ADlnstruments, UK). Beating rate was calculated in real-time from the upstroke of the tension signal using the Chart5 Ratemeter function.
# Spontaneously-beating atrial preparations were allowed to stabilise for 20 minutes, solution was exchanged for fresh, warmed, PSS and the preparation was again allowed to stabilise for 30 minutes. Drugs were added directly to the organ bath by pipette and allowed to equilibrate for 30 minutes before rate data was sampled.
# Male CD-1 mice (7-9 weeks of age) were terminated by concussion followed by dislocation.
# as §1, with “The” for “Male CD-1 mice (7-9 weeks of age) were terminated by concussion followed by dislocation. The”
# [6] = tested on: male Sprague-Dawley rats; test: Rat in-vivo blood pressure and heart rate study (anaesthetised, carotid cannula)
# Protocol: Data was acquired (200 Hz) in real time using a Biopac M100 system connected to a Dell P4 computer using AcqKnowledge software. Heart rate was triggered from the arterial blood pressure signal. Intravenous access was gained via the left external jugular vein using a 3 F cannula. After an equilibration period of at least 10 minutes, hydoxychloroquine (dissolved in sterile normal saline for injection and warmed to body temperature) was given as intravenous boluses over 30 seconds (1-30 mg/kg). […] Once a stable response had been reached, measurements were taken as an average over 30 seconds. On completion of the protocol, animals were euthanised with intraperitoneal injection of pentobarbitone. […] Data was acquired (200 Hz) in real time using a Biopac M100 system connected to a Dell P4 computer using AcqKnowledge software. Heart rate was triggered from the arterial blood pressure signal. Intravenous access was gained via the left external jugular vein using a 3 F cannula. After an equilibration period of at least 10 minutes, hydoxychloroquine (dissolved in sterile normal saline for injection and warmed to body temperature) was given as intravenous boluses over 30 seconds (1-30 mg/kg). […] Once a stable response had been reached, measurements were taken as an average over 30 seconds. On completion of the protocol, animals were euthanised with intraperitoneal injection of pentobarbitone.
# [7] = 3 μM, 5 mins superfusion, n=4 cells
compound,measurement,setting,value
CC(C)NCC(O)COc1ccc(CC(N)=O)cc1 (centres unmarked) [atenolol],side effects experienced,[1]; patient on atenolol,"tiredness associated with the onset of use of atenolol, low blood pressure and increased effects of Raynaud's syndrome"
same,heart rate,"[1]; patient treated with atenolol and a glyceryl trinitrate spray, about 118 bpm at rest before",70-80 bpm
"CCN(CCO)CCCC(C)Nc1ccnc2cc(Cl)ccc12 (centres unmarked) [hydroxychloroquine, 2-[{4-[(7-chloroquinolin-4-yl)amino]pentyl}(ethyl)amino]ethanol]",reduction in cellular beating rate (action potential firing rate),"[2]; 3 mins of exposure, n=6",10±3%
same,lengthening in the time taken to reach 50% repolarisation,[2]; 5 min superfusion,11+/-3%
same,reduction in the slope of spontaneous diastolic depolarization,[2]; 5 min superfusion,25+/−3%
same,reduction in rate of spontaneous action potential generation (cellular beating rate),"[2]; 5 min superfusion, n=6, listed as HCQ",17±6%
same,reduction in If current,[3]; −80 mV voltage step,20+/−4%
same,reduction in If current,[3]; −100 mV step,12+/−4%
same,maximal conductance of I(f),[3]; [7],85±6 % of control
same,voltage of half-activation (V50) and slope of conductance,[3]; [7],unchanged
same,"systolic blood pressure, baseline","[4]; C57BL/6, mouse",109.7±2.89 mmHg
same,start weight,[4]; mouse,27.72 ± 0.36 g
same,reduction in beating rate from control,[5]; 3 μM cumulative dose,9±3%
same,decrease in spontaneous frequency,[5]; 3 μM,11%
same,reduction in beating rate from control,[5]; 10 μM cumulative dose,15±2%
same,decrease in spontaneous frequency,[5]; 10 μM,20%
same,cumulative dose at which a significant transient reduction in heart rate is observed,[6]; cumulative intravenous doses,≥ 7.5 mg/kg
same,effect on blood pressure at low doses,"[6]; low intravenous doses (1-15 mg), n=6",without an effect on blood pressure
same,effect on blood pressure at very high doses,[6]; very high intravenous doses,an effect on blood pressure (which recovers over time)
same,heart rate,"[1]; 200 mg daily resumed Aug. 4, 2010, measured Sep. 16, 2010",80-88 bpm
same,stable heart rate,"[1]; 200 mg daily, August 2010 until December 2010",70-85 bpm
same,heart rate,"[1]; 200 mg to 400 mg Plaquenil per day, Atenolol completely ceased",70-80 bpm
same,recorded heart rate,"[1]; dose halved to 100 mg per day, ECG Aug. 3, 2010",109 bpm

# Reference: US20160151347A1, “PHARMACEUTICAL COMPOUNDS” (ISIS Innovation LTD, priority 2013, published 2016)
